Results taken from patent US6737383B1, “Herbicidal oxadiazolidines” (priority 1999, dated 2004).

Experiments:
corn = experiment: Test B pre/postemergence corn; assay type: in vivo, Zea mays
Procedure, shortened: (§1)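 Herbicidal effect was estimated by eye on a ten-point control scale after plants spent twelve to sixteen days in a greenhouse following soil or foliar treatment. Foliar sprays targeted plants at one to four leaves; all doses were formulated in a non-phytotoxic solvent with surfactant.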

blackgrass = experiment: Test B pre/postemergence blackgrass; assay type: in vivo, Alopecurus myosuroides
Procedure, shortened: as §1

soybean = experiment: Test B pre/postemergence soybean; assay type: in vivo, Glycine max; details: for Plant response rating, Soybean: scale of 0 to 10 where 0 is no effect and 10 is complete control
Procedure, shortened: as §1

rape = experiment: Test B pre/postemergence rape; assay type: in vivo, Brassica napus; details: for Plant response rating, Rape: scale of 0 to 10 where 0 is no effect and 10 is complete control
Procedure, shortened: as §1

surinam grass = experiment: Test B pre/postemergence surinam grass; assay type: in vivo, Brachiaria decumbens
Procedure, shortened: as §1

bedstraw = experiment: Test B pre/postemergence bedstraw; assay type: in vivo, Galium aparine
Procedure, shortened: as §1

morningglory = experiment: Test B pre/postemergence morningglory; assay type: in vivo, Ipomoea hederacea; details: for Plant response rating, Morningglory: scale of 0 to 10 where 0 is no effect and 10 is complete control
Procedure, shortened: as §1

sugar beet = experiment: Test B pre/postemergence sugar beet; assay type: in vivo, Beta vulgaris; details: for Plant response rating, Sugarbeets: scale of 0 to 10 where 0 is no effect and 10 is complete control
Procedure, shortened: as §1

rice = experiment: Test B flood test rice; assay type: in vivo, Oryza sativa
Procedure, shortened: (§2)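 Plants were grown to the 2-leaf stage before treatment with test chemical, then held in a greenhouse for twelve to sixteen days. Injury was visually rated against untreated controls on a 0–10 scale, where 0 is no effect and 10 is complete control.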

pigweed = experiment: Test B pre/postemergence pigweed; assay type: in vivo, Amaranthus retroflexus; details: for Plant response rating, Redroot pigweed: scale of 0 to 10 where 0 is no effect and 10 is complete control
Procedure, shortened: as §1

bamyardgrass = experiment: Test B flood test barnyardgrass; assay type: in vivo, Echinochloa crus-galli
Procedure, shortened: as §2

velvetleaf = experiment: Test B pre/postemergence velvetleaf; assay type: in vivo, Abutilon theophrasti; details: for Plant response rating, Velvetleaf: scale of 0 to 10 where 0 is no effect and 10 is complete control
Procedure, shortened: as §1

giant foxtail = experiment: Test B pre/postemergence giant foxtail; assay type: in vivo, Setaria faberii
Procedure, shortened: as §1

duck salad = experiment: Test B flood test duck salad; assay type: in vivo, Heteranthera limosa
Procedure, shortened: as §2

smallflower flatsedge = experiment: Test B flood test smallflower flatsedge; assay type: in vivo, Cyperus difformis
Procedure, shortened: as §2

purple nutsedge = experiment: Test B pre/postemergence purple nutsedge; assay type: in vivo, Cyperus rotundus; details: for Plant response rating, Nutsedge: scale of 0 to 10 where 0 is no effect and 10 is complete control
Procedure, shortened: as §1

[1] = Postemergence, Rate 250 g/ha, scale 0 to 10
[2] = Postemergence, Rate 500 g/ha, scale of 0 to 10 where 0 is no effect and 10 is complete control
[3] = Preemergence, Rate 62 g/ha, scale of 0 to 10 where 0 is no effect and 10 is complete control
[4] = Preemergence, Rate 125 g/ha, scale of 0 to 10 where 0 is no effect and 10 is complete control
[5] = Preemergence, Rate 250 g/ha, scale 0 to 10, 0 is no effect, 10 is complete control
[6] = Preemergence, Rate 500 g/ha, scale 0 to 10, 0 is no effect, 10 is complete control
[7] = Rate 62 g/ha, Postemergence, scale 0 to 10 (0 no effect, 10 complete control)
[8] = Rate 125 g/ha, Postemergence, scale 0 to 10, 0 is no effect, 10 is complete control
[9] = Rate 62 g/ha, flood test species, Pre-emergence, visual evaluation after twelve to sixteen days
[10] = Rate 125 g/ha, under heading Pre-emergence, flood test species, visual evaluation after twelve to sixteen days
[11] = Rate 250 g/ha, Pre-emergence (flood test species), scale 0 to 10, 0 is no effect, 10 is complete control
[12] = Rate 500 g/ha, Pre-emergence, flood test species, scale 0 to 10 (0 no effect, 10 complete control)

CC(C)N(C(=O)n1oc(=O)n(CCCl)c1=O)c1ccc(Cl)cc1 [Compound 474]
Corn plant response rating (corn; [1]): 0
Corn plant response rating (corn; [2]): 0
Plant response rating, Corn (corn; [3]): 0
Plant response rating, Corn (corn; [4]): 0
Corn plant response rating (corn; [5]): 0
Corn plant response rating (corn; [6]): 4
Corn plant response rating (corn; [7]): 0
Corn plant response rating (corn; [8]): 0
Blackgrass plant response rating (blackgrass; [1]): 8
Blackgrass plant response rating (blackgrass; [2]): 8
Plant response rating, Blackgrass (blackgrass; [3]): 3
Plant response rating, Blackgrass (blackgrass; [4]): 3
Blackgrass plant response rating (blackgrass; [5]): 4
Blackgrass plant response rating (blackgrass; [6]): 9
Blackgrass plant response rating (blackgrass; [7]): 7
Soybean plant response rating (soybean; [1]): 4
Plant response rating, Soybean (soybean; Preemergence, Rate 62 g/ha): 0
Plant response rating, Soybean (soybean; Preemergence, Rate 125 g/ha): 0
Soybean plant response rating (soybean; [5]): 0
Soybean plant response rating (soybean; [6]): 0
Soybean plant response rating (soybean; [7]): 3
Soybean plant response rating (soybean; [8]): 4
Rape plant response rating (rape; [1]): 0
Plant response rating, Rape (rape; Preemergence, Rate 62 g/ha): 0
Plant response rating, Rape (rape; Preemergence, Rate 125 g/ha): 0
Rape plant response rating (rape; [5]): 2
Rape plant response rating (rape; [6]): 4
Rape plant response rating (rape; [7]): 0
Rape plant response rating (rape; [8]): 0
B. signalgrass plant response rating (surinam grass; Postemergence, Rate 250 g/ha, scale 0 to 10, 0 no effect, 10 complete control): 1
B. signalgrass plant response rating (surinam grass; [2]): 4
Plant response rating, B. signalgrass (surinam grass; [3]): 0
Plant response rating, B. signalgrass (surinam grass; [4]): 2
B. signalgrass plant response rating (surinam grass; [5]): 7
B. signalgrass plant response rating (surinam grass; [6]): 7
B. signalgrass plant response rating (surinam grass; [7]): 0
B. signalgrass plant response rating (surinam grass; [8]): 1
Bedstraw plant response rating (bedstraw; [1]): 8
Bedstraw plant response rating (bedstraw; [2]): 8
Plant response rating, Bedstraw (bedstraw; [3]): 0
Bedstraw plant response rating (bedstraw; [6]): 0
Bedstraw plant response rating (bedstraw; [7]): 6
Bedstraw plant response rating (bedstraw; [8]): 6
Morningglory plant response rating (morningglory; [1]): 1
Plant response rating, Morningglory (morningglory; Preemergence, Rate 62 g/ha): 0
Plant response rating, Morningglory (morningglory; Preemergence, Rate 125 g/ha): 0
Morningglory plant response rating (morningglory; [5]): 0
Morningglory plant response rating (morningglory; [6]): 0
Morningglory plant response rating (morningglory; [7]): 1
Morningglory plant response rating (morningglory; [8]): 1
Sugarbeets plant response rating (sugar beet; [1]): 0
Plant response rating, Sugarbeets (sugar beet; Preemergence, Rate 62 g/ha): 0
Plant response rating, Sugarbeets (sugar beet; Preemergence, Rate 125 g/ha): 0
Sugarbeets plant response rating (sugar beet; [5]): 0
Sugarbeets plant response rating (sugar beet; [6]): 3
Sugarbeets plant response rating (sugar beet; [7]): 0
Sugarbeets plant response rating (sugar beet; [8]): 0
Plant response rating, Rice (0 to 10 scale, 0 is no effect, 10 is complete control) (rice; [9]): 0
Rice plant response rating (0 to 10 scale, 0 is no effect, 10 is complete control) (rice; [10]): 0
Rice plant response rating (rice; [11]): 0
Rice plant response rating (rice; [12]): 0
Redroot pigweed plant response rating (pigweed; [1]): 2
Plant response rating, Redroot pigweed (pigweed; Preemergence, Rate 62 g/ha): 1
Plant response rating, Redroot pigweed (pigweed; Preemergence, Rate 125 g/ha): 3
Redroot pigweed plant response rating (pigweed; [5]): 5
Redroot pigweed plant response rating (pigweed; [6]): 7
Redroot pigweed plant response rating (pigweed; [7]): 0
Redroot pigweed plant response rating (pigweed; [8]): 1
Plant response rating, Barnyardgrass (0 to 10 scale, 0 is no effect, 10 is complete control) (bamyardgrass; [9]): 0
Barnyardgrass plant response rating (0 to 10 scale, 0 is no effect, 10 is complete control) (bamyardgrass; [10]): 0
Barnyardgrass plant response rating (bamyardgrass; [11]): 0
Barnyardgrass plant response rating (bamyardgrass; [12]): 0
Velvetleaf plant response rating (velvetleaf; [1]): 0
Plant response rating, Velvetleaf (velvetleaf; Preemergence, Rate 62 g/ha): 0
Plant response rating, Velvetleaf (velvetleaf; Preemergence, Rate 125 g/ha): 0
Velvetleaf plant response rating (velvetleaf; [5]): 0
Velvetleaf plant response rating (velvetleaf; [6]): 0
Velvetleaf plant response rating (velvetleaf; [7]): 0
Velvetleaf plant response rating (velvetleaf; [8]): 0
Giant foxtail plant response rating (giant foxtail; [1]): 7
Giant foxtail plant response rating (giant foxtail; [2]): 8
Plant response rating, Giant foxtail (giant foxtail; [3]): 7
Plant response rating, Giant foxtail (giant foxtail; [4]): 10
Giant foxtail plant response rating (giant foxtail; [5]): 10
Giant foxtail plant response rating (giant foxtail; [6]): 10
Giant foxtail plant response rating (giant foxtail; [7]): 3
Giant foxtail plant response rating (giant foxtail; [8]): 6
Plant response rating, Ducksalad (0 to 10 scale, 0 is no effect, 10 is complete control) (duck salad; [9]): 0
Ducksalad plant response rating (0 to 10 scale, 0 is no effect, 10 is complete control) (duck salad; [10]): 0
Ducksalad plant response rating (duck salad; [11]): 0
Ducksalad plant response rating (duck salad; [12]): 0
Plant response rating, S. Flatsedge (0 to 10 scale, 0 is no effect, 10 is complete control) (smallflower flatsedge; [9]): 0
S. Flatsedge plant response rating (0 to 10 scale, 0 is no effect, 10 is complete control) (smallflower flatsedge; [10]): 0
S. Flatsedge plant response rating (smallflower flatsedge; [11]): 0
S. Flatsedge plant response rating (smallflower flatsedge; [12]): 0
Nutsedge plant response rating (purple nutsedge; [1]): 0
Plant response rating, Nutsedge (purple nutsedge; Preemergence, Rate 62 g/ha): 0
Plant response rating, Nutsedge (purple nutsedge; Preemergence, Rate 125 g/ha): 0
Nutsedge plant response rating (purple nutsedge; [5]): 0
Nutsedge plant response rating (purple nutsedge; [6]): 0
Nutsedge plant response rating (purple nutsedge; [7]): 0
Nutsedge plant response rating (purple nutsedge; [8]): 0
